Measured values: patent publication US20120077786A1, “METHODS AND COMPOSITIONS FOR DISEASE TREATMENT USING INHALATION” (priority 2010, published 2012)
Values belong to the molecule of their own block, whether it stands above or below them.

What was measured:
[1] = system: mice exposed to cigarette smoke; settings: cited from earlier work
[2] = system: adult rats with preexisting elastase-induced emphysema; settings: cited from earlier work
[3] = system: adults with hereditary emphysema; settings: cited from earlier work
patients with COPD = settings: extrafine, 1.1 microns in diameter, HFA pMDI; cited from earlier work
[4] = Aerosol performance of dry powder inhaler formulation, next generation Impactor; assay type: physicochemical; settings: inhaler operated at 15 L/min
Procedure: Inhaled corticosteroids (ICS) mometasone furoate or fluticasone furoate are prepared with volume median particle size of less than 5 microns. Calcitriol (1, 25-Dihydroxycholecalciferol) is also prepared in crystalline form and subsequently micronized to a volume median particle size of less than 5 microns. The ICS's are incorporated at appropriately 30-50% of the commercial ICS dose when administered via a passive dry powder inhaler, due to the efficiency of the invention delivered by a dry powder inhaler (DPI) available from MicroDose Therapeutx, Inc. One preferred embodiment utilizes an ICS dosed once daily, i.e. mometasone furoate or fluticasone furoate, to coincide with a once daily dose of the vitamin D receptor agonist. This combination product is designed to reverse corticoidsteroid resistance (CR) by adding the protective anti-inflammatory effects of calcitriol with the local anti-inflamatory effects of these ICS's. The inhaler is operated at 15 L/min and for both medicaments, the aerosol performance with a fine particle fraction (% of particles exiting the inhaler that are less than 5.8 microns) is […] with at least 10% of particles in the less than 2.1 micron size range when tested with a next generation Impactor.
Calcitriol is a synthetic vitamin D analog and has been used as a pharmaceutical as well as a nutraceutical. […]

[5] = system: cell line cultured from patients with corticosteroid resistant asthma; settings: after addition of vitamin D; promotion of regulatory T cells; cited from earlier work
Airway smooth muscle = settings: cited from earlier work
asthmatic adults = settings: cited from earlier work

Molecule: CC1=C(/C=C/C(C)=C/C=C/C(C)=C/C(=O)O)C(C)(C)CCC1 [ATRA, All Trans Retinoic Acid]
formation of pulmonary emphysema ([1]; mice exposed to cigarette smoke): diminishes the formation of pulmonary emphysema | distance between alveolar walls ([1]; mice with emphysema produced by cigarette smoke): decreases the distance between alveolar walls | alveolus formation [2]: induces alveolus formation | trial outcome [3]: not been successful

Molecule: CCC(=O)OCC(=O)[C@@]1(OC(=O)CC)[C@@H](C)C[C@H]2[C@@H]3CCC4=CC(=O)C=C[C@]4(C)[C@@]3(Cl)[C@@H](O)C[C@@]21C [beclomethasone dipropionate]
air trapping (patients with COPD): significant reduction in air trapping

particles in the less than 2.1 micron size range [4]: at least 10%
Molecule: C=C1/C(=C\C=C2/CCC[C@]3(C)[C@@H]([C@H](C)CCCC(C)(C)O)CC[C@@H]23)C[C@@H](O)C[C@@H]1O [calcitriol, 1, 25-Dihydroxycholecalciferol]

Molecule: vitamin D
steroid sensitivity [5]: increased steroid sensitivity | airway smooth muscle proliferation (Airway smooth muscle): slow | mean increase in FEV1 for every 1 ng/mL increase in systemic vitamin D (asthmatic adults): 22.7 mL
